In US7981903B2, “2-[2-{phenylamino}-1H-pyrrolo[2,3-D]pyrimidin-4-yl)amino] benzamide derivatives as IGF-1R inhibitors for the treatment of cancer” (GlaxoSmithKline LLC, priority 2007, dated 2011):

Key:
[1] = biological target: T1, human IGF1R (hIGF1R) (Homo sapiens, UniProt P08069); assay: TR-FRET kinase assay of purified hIGF1R; assay type: biochemical; conditions: activated hIGF1R 0.5 nM, 10 μM ATP, values given as pIC50 category, read-out: IGF-1R pIC50 (converted)
T1 construct: containing amino acid residues 957-1367 of human IGF1R; made in house; host or cells: Sf9 cells (baculovirus)
T1 sequence (P08069 957-1367): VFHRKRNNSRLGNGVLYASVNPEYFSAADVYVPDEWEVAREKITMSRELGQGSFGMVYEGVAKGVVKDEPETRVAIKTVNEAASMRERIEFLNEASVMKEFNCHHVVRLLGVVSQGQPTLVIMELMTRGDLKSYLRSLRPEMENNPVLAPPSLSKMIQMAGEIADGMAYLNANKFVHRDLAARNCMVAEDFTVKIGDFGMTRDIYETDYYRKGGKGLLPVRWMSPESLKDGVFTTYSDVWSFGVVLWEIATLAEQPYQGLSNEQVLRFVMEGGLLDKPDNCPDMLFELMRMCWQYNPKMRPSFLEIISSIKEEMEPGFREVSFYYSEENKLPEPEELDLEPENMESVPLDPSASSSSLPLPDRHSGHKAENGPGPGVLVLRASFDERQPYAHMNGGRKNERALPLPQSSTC

[2] = biological target: T2, NIH-3T3 cells overexpressing human IGF-1R (Homo sapiens, UniProt P08069); assay: IGF-1R cellular autophosphorylation (DELFIA); assay type: cell-based
T2 construct: expressed in transfected cells; host or cells: NIH-3T3 (mouse fibroblasts)
T2 sequence (P08069 31-1367): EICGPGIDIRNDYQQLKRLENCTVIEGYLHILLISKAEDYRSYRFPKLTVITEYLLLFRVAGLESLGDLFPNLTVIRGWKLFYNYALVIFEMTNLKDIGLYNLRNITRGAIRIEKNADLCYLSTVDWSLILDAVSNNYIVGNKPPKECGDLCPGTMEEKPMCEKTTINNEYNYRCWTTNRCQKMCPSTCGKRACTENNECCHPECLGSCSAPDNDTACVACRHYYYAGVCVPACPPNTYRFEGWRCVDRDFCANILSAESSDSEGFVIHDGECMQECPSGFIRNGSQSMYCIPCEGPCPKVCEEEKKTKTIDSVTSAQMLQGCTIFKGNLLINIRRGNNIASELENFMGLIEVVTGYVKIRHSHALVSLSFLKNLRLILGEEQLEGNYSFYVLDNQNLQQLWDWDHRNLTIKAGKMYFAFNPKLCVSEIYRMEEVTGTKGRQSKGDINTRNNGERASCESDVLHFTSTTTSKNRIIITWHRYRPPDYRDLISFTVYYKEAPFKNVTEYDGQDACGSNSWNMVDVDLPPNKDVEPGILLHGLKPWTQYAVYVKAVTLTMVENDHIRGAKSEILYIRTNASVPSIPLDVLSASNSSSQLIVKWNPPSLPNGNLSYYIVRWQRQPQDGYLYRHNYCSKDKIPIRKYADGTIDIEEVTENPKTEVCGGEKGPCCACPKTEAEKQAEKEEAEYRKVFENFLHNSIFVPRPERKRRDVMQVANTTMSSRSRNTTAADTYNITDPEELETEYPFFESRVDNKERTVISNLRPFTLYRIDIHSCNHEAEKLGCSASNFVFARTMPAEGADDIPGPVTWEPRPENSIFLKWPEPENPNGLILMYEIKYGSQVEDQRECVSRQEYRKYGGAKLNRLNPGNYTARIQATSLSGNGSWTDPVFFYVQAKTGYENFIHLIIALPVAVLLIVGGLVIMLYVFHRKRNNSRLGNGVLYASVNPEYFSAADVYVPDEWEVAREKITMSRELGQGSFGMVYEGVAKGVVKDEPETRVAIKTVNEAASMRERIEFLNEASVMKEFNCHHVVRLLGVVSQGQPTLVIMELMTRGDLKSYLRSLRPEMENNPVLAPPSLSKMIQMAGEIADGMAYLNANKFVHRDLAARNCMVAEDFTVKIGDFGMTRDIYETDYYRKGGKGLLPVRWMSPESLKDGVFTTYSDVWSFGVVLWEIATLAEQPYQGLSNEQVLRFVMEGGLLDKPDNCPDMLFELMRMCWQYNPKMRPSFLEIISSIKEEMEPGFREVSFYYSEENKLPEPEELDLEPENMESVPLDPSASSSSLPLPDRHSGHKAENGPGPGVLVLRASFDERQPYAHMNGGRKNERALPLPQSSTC
Outline: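 Receptor autophosphorylation measured by DELFIA, capturing IGF-1R or IRβ and detecting with europium anti-pTyr, reported as percent of IGF-1- or insulin-stimulated signal. Compounds (30 uM to 1.5 nM) added 2 h before ligand, then 15 min stimulation (IGF-1 30 ng/ml or insulin 3 ug/ml).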

[3] = biological target: T3, human IR (hIR) (Homo sapiens, UniProt P06213); assay: TR-FRET kinase assay of purified hIR; assay type: biochemical; conditions: activated hIR 0.5 nM, 10 μM ATP, values given as pIC50 category
T3 construct: containing amino acid residues 979-1382 of human IR; made in house; host or cells: Sf9 cells (baculovirus), same process as hIGF1R
T3 sequence (P06213 979-1382): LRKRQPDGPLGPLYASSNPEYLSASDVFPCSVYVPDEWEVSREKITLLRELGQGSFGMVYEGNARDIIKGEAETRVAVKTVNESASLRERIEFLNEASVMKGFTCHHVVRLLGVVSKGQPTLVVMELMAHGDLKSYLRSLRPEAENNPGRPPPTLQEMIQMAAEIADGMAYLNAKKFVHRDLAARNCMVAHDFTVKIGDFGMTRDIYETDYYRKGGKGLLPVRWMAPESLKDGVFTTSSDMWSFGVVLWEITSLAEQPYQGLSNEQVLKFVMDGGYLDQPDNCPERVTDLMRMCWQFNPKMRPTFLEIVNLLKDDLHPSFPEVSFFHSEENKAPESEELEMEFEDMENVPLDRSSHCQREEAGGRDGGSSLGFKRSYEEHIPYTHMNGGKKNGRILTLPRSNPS

[4] = biological target: ALK (Homo sapiens, UniProt Q9UM73); assay: ALK enzyme assay (HTRF); assay type: biochemical; conditions: 0.25 nM ALK, 15.0 μM ATP, values given as pIC50 category
ALK, sequence (Q9UM73 19-1620): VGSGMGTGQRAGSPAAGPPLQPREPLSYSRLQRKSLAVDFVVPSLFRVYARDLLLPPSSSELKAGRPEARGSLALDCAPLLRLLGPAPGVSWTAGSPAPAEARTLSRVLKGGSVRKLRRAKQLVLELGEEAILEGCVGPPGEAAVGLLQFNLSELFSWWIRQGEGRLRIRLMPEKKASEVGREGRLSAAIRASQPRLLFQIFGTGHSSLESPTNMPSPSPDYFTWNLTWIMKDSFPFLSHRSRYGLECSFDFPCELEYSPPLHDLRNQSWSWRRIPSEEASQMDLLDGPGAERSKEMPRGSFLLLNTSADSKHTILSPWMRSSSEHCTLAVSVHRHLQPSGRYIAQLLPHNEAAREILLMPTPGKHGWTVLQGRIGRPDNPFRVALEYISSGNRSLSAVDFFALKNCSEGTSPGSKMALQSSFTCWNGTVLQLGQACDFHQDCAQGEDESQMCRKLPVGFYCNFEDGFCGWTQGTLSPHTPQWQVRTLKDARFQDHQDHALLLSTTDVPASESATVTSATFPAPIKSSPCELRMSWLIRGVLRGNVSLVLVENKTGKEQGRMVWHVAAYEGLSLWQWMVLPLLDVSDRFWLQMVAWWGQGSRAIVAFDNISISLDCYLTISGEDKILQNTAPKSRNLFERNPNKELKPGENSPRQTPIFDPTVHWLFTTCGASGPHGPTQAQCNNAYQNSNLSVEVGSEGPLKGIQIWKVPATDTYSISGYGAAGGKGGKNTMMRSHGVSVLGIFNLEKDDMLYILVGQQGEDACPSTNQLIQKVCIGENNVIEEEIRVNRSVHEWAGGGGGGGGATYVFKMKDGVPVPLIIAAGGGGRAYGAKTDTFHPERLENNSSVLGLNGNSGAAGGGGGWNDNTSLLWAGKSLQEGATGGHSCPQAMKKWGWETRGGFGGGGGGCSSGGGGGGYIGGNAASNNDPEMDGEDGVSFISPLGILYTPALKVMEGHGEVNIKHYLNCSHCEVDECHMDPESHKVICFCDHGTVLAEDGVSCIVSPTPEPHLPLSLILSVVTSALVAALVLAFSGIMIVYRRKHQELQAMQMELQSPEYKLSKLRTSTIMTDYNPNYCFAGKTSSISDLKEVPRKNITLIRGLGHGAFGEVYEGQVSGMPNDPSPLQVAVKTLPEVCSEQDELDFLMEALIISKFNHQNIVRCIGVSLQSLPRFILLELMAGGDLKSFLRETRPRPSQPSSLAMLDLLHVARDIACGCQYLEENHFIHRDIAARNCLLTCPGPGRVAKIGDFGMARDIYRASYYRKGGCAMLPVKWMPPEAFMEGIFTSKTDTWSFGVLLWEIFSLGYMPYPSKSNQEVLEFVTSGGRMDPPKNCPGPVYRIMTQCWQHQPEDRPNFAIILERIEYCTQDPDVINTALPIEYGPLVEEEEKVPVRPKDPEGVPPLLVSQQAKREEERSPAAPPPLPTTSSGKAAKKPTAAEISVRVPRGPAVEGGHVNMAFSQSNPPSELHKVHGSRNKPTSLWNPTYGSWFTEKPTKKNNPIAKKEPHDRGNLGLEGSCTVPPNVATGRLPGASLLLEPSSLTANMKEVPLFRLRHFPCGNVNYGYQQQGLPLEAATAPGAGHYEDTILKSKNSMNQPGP
Outline: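 Final compound range 0.00017 to 10 μM (twelve 1:3 dilutions). Kinase reaction with ATP and biotinylated synthetic peptide runs 120 min at 20° C, stopped with EDTA; phosphotyrosine detected by HTRF after 60 min. Inhibition referenced to DMSO (1%) and EDTA (0.1 M) controls, curve-fitted.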

[5] = biological target: T4, NIH-3T3 cells overexpressing human IR (Homo sapiens, UniProt P06213); assay: IR cellular autophosphorylation (DELFIA); assay type: cell-based; conditions: 2 h compound, insulin 3 ug/ml for 15 minutes, IC50 category
T4 construct: expressed in transfected cells; host or cells: NIH-3T3 (mouse fibroblasts)
T4 sequence (P06213 28-1382): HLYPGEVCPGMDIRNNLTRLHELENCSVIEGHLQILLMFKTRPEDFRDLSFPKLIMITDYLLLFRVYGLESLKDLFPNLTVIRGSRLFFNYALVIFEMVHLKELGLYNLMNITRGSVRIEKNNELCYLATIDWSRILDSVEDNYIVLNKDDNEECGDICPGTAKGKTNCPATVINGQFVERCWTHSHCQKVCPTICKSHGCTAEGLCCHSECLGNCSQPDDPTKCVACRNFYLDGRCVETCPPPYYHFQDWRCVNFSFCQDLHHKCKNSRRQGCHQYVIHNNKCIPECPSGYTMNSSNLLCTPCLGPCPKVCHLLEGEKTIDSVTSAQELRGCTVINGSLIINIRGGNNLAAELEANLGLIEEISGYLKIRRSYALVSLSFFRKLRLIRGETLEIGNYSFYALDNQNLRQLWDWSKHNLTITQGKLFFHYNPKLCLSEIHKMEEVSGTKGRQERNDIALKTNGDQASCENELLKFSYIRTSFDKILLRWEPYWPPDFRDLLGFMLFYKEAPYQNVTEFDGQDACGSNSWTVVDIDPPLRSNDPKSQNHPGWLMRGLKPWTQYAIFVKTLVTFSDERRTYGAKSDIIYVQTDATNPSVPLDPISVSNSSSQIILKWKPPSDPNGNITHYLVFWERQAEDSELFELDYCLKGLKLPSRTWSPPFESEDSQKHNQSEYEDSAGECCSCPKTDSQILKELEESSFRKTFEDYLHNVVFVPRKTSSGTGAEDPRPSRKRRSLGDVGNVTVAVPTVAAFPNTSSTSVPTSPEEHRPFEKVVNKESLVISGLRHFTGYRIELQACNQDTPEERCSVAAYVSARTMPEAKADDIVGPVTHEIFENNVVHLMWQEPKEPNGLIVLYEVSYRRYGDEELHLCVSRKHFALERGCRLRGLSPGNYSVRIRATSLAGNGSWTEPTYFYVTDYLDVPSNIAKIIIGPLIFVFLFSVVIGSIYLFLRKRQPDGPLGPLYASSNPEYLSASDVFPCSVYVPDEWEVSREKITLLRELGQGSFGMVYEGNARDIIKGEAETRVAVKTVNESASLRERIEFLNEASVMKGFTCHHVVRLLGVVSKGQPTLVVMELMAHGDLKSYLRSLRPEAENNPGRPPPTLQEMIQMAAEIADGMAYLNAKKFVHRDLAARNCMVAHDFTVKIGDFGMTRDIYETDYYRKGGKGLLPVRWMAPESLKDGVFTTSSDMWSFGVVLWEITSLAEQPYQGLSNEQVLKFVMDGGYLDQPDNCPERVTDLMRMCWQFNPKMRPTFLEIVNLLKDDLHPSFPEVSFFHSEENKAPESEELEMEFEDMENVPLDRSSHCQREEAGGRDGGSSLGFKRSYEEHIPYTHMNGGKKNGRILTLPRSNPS
Method: NIH-3T3 cells overexpressing human IGF-1R or IR were plated in 96-well plates (10,000 cells/well) in culture media containing 10% fetal bovine serum and incubated at 37° C. in a 5% CO2 incubator. Twenty four hours post-plating, cells were treated with different concentrations of test compounds ranging from 30 uM to 1.5 nM. Two hours after compound addition, cells were stimulated with either human IGF-1 (30 ng/ml) or insulin (3 ug/ml) for 15 minutes. Cell lysates are analyzed for phosphorylated receptors using dissociation enhanced lanthanide fluor-immuno assay (DELFIA) with anti-IGF-1R (MAB391, R&D Systems, Minneapolis, Minn.) or anti-IRβ (sc-711, Santa Cruz Biotechnology, Santa Cruz, Calif.) capture antibody and europium-labeled anti-pTyr antibody (Eu-N1 PT66, Perkin Elmer, Waltham, Mass.) for detection. The fluorescence signal for cells treated with compounds was expressed as percent relative to 100% stimulation (IGF-1 or insulin stimulated signal).

[6] = test system: Colo205; assay: Inhibition of cell proliferation (CellTiter-Glo or InCell analyzer), Colo205; assay type: cell-based; conditions: Homo sapiens, COLO 205, 72 h / 3 days, values given as IC50 category
Method: Cell proliferation was measured by either CellTiter-Glo (measures cellular ATP level as a surrogate for total cell number) or by InCell analyzer (counts number of nuclei as a measure of cell number).
For CellTiter-Glo assay, exponentially growing cell lines of different tumor origins, cultured in appropriate media containing 10% fetal bovine serum at 37° C. in a 5% CO2 incubator, were plated at low density (less than 2000cells/well) in 96-well plates. Twenty four hours post-plating, cells were treated with different concentrations of test compounds ranging from 30 uM to 1.5 nM. Several wells were left untreated as a control. Seventy two hours post-treatment, cell numbers were determined using 50-100 ul per well of CellTiter-Glo (Promega #G7573). Plates were incubated at 37° C. for 30 minutes and the chemiluminescent signal was read on the Victor V or Envison 2100 reader.
For InCell Analyser assay, various cell lines of different tumor origins were grown to 70-80% confluency in appropriate culture media containing 10% fetal bovine serum at 37° C. in a 5% CO2 incubator. On day −1, cells were seeded at 2 densities in 384-well plates and incubated at 37° C. overnight. Stock compound plates were prepared in advance which contained dimethyl sulfoxide (DMSO) alone and a 9-point half-log decreasing dose range of the compound in DMSO. The compound plates were stored at −80° C. and each plate was only thawed once and used. On day 0, the main assay plates received compound or DMSO via a sonic delivery system (ECHO). The highest final concentration of compound of the dose range in the culture plates was 10 uM. These plates were cultured at 37° C. for 3 days. […] On day 3, the compound treated plates were stained and fixed to measure proliferation, apoptosis, and mitotic index using an InCelL1000 analyser. A nuclear stain was used to identify cells in the wells. By counting the number of nuclei, the proliferation index of compound treated groups were calculated as a percentage relative to the DMSO control, which was set to 100%. The IC50 values were calculated using model 205 in ExcelFit.
IC50 (nM) values for compounds of select examples were categorized by relative inhibition of cell proliferation.

Row | SMILES | IC50 [1] [nM] | IC50 [2] [nM] | IC50 [3] [nM] | IC50 [4] [nM] | IC50 [5] [nM] | IC50 [6] [nM]
1 | COc1cc(N2CCOCC2)ccc1Nc1nc(Nc2ccccc2C(N)=O)c2cc[nH]c2n1 [Example 12, 2-[(2-{[2-(methyloxy)-4-(4-morpholinyl)phenyl]amino}-1H-pyrrolo[2,3-d]pyrimidin-4-yl)amino]benzamide] | 1.26 to 3.98 | 100 to 500 | 0.251 to 1 | 0.251 to 1 | 100 to 500 | –
2 | Cc1ccc(NC(=O)CN2CCCC2)cc1Nc1nc(Nc2ccccc2C(N)=O)c2cc[nH]c2n1 [Example 14, 2-{[2-({2-methyl-5-[(1-pyrrolidinylacetyl)amino]phenyl}amino)-1H-pyrrolo[2,3-d]pyrimidin-4-yl]amino}benzamide] | 1.26 to 3.98 | 100 to 500 | 0.251 to 1 | 1.26 to 3.98 | 100 to 500 | –
3 | CCCN1CCC=C(c2ccc(Nc3nc(Nc4ccccc4C(=O)NC)c4cc[nH]c4n3)c(OC)c2)C1 [Example 23, N-methyl-2-[(2-{[2-(methyloxy)-4-(1-propyl-1,2,5,6-tetrahydro-3-pyridinyl)phenyl]amino}-1H-pyrrolo[2,3-d]pyrimidin-4-yl)amino]benzamide] | 1.26 to 3.98 | 100 to 500 | 0.251 to 1 | 0.251 to 1 | 100 to 500 | –
4 | CCCN1CCCC(c2ccc(Nc3nc(Nc4ccccc4C(=O)NC)c4cc[nH]c4n3)c(OC)c2)C1 (stereo not shown) [Example 24, N-methyl-2-[(2-{[2-(methyloxy)-4-(1-propyl-3-piperidinyl)phenyl]amino}-1H-pyrrolo[2,3-d]pyrimidin-4-yl)amino]benzamide] | 1.26 to 3.98 | 100 to 500 | – | 0.251 to 1 | 100 to 500 | –
5 | Cc1ccc(NC(=O)CN(C)C)cc1Nc1nc(Nc2ccccc2C(=O)NCc2ccc(F)cc2)c2cc[nH]c2n1 [Example 27, 2-{[2-({5-[(N,N-dimethylglycyl)amino]-2-methylphenyl}amino)-1H-pyrrolo[2,3-d]pyrimidin-4-yl]amino}-N-[(4-fluorophenyl)methyl]benzamide] | 5.01 to 200 | > 500 | 1.26 to 3.98 | 5.01 to 200 | > 500 | –
6 | CCCN1CCC=C(c2ccc(Nc3nc(Nc4cc5ccccc5cc4C(N)=O)c4cc[nH]c4n3)c(OC)c2)C1 [Example 29, 3-[(2-{[2-(methyloxy)-4-(1-propyl-1,2,5,6-tetrahydro-3-pyridinyl)phenyl]amino}-1H-pyrrolo[2,3-d]pyrimidin-4-yl)amino]-2-naphthalenecarboxamide] | 1.26 to 3.98 | 100 to 500 | 1.26 to 3.98 | 1.26 to 3.98 | 100 to 500 | –
7 | Cc1ccc(NC(=O)CN(C)C)cc1Nc1nc(Nc2cc3ccccc3cc2C(N)=O)c2cc[nH]c2n1 [Example 30, 3-{[2-({5-[(N,N-dimethylglycyl)amino]-2-methylphenyl}amino)-1H-pyrrolo[2,3-d]pyrimidin-4-yl]amino}-2-naphthalenecarboxamide] | 1.26 to 3.98 | – | 0.251 to 1 | 5.01 to 200 | > 500 | –

Other lines, results leading:

Row | IC50 [1] [nM] | IC50 [2] [nM] | IC50 [3] [nM] | IC50 [4] [nM] | IC50 [5] [nM] | IC50 [6] [nM] | SMILES
8 | 1.26 to 3.98 | 100 to 500 | 1.26 to 3.98 | 1.26 to 3.98 | 100 to 500 | – | CCCN1CCCC(c2ccc(Nc3nc(Nc4cccc(OC)c4C(N)=O)c4cc[nH]c4n3)c(OC)c2)C1 (stereo not shown) [Example 36, 2-(methyloxy)-6-[(2-{[2-(methyloxy)-4-(1-propyl-3-piperidinyl)phenyl]amino}-1H-pyrrolo[2,3-d]pyrimidin-4-yl)amino]benzamide]
9 | 1.26 to 3.98 | < 100 | – | 1.26 to 3.98 | – | < 250 | COc1cc(N2CCN(C(C)C)CC2)c(OC)cc1Nc1nc(Nc2cccc(F)c2C(N)=O)c2cc[nH]c2n1 [Example 47, 2-fluoro-6-[(2-{[4-[4-(1-methylethyl)-1-piperazinyl]-2,5-bis(methyloxy)phenyl]amino}-1H-pyrrolo[2,3-d]pyrimidin-4-yl)amino]benzamide]
10 | – | 100 to 500 | 0.251 to 1 | 0.251 to 1 | 100 to 500 | – | COc1cc(C2=CCCN(C)C2)ccc1Nc1nc(Nc2ccc(F)cc2C(N)=O)c2cc[nH]c2n1 [Example 55, 5-fluoro-2-[(2-{[2-(methyloxy)-4-(1-methyl-1,2,5,6-tetrahydro-3-pyridinyl)phenyl]amino}-1H-pyrrolo[2,3-d]pyrimidin-4-yl)amino]benzamide]
11 | 1.26 to 3.98 | < 100 | – | 1.26 to 3.98 | – | 250 to 1000 | COc1ccc(OCCCN(C)C)cc1Nc1nc(Nc2ccc(F)cc2C(N)=O)c2cc[nH]c2n1 [Example 64, 2-[(2-{[5-{[3-(dimethylamino)propyl]oxy}-2-(methyloxy)phenyl]amino}-1H-pyrrolo[2,3-d]pyrimidin-4-yl)amino]-5-fluorobenzamide]
12 | 1.26 to 3.98 | 100 to 500 | – | 1.26 to 3.98 | – | 250 to 1000 | CCCN1CCC=C(c2ccc(Nc3nc(Nc4cc(F)ccc4C(=O)NCC(N)=O)c4cc[nH]c4n3)c(OC)c2)C1 [Example 67, N-(2-amino-2-oxoethyl)-4-fluoro-2-[(2-{[2-(methyloxy)-4-(1-propyl-1,2,5,6-tetrahydro-3-pyridinyl)phenyl]amino}-1H-pyrrolo[2,3-d]pyrimidin-4-yl)amino]benzamide]
13 | 0.251 to 1 | 100 to 500 | 0.251 to 1 | – | < 100 | – | COc1cc(N2CCN(C(C)C)CC2)ccc1Nc1nc(Nc2cc(F)ccc2C(N)=O)c2cc[nH]c2n1 [Example 79, 4-fluoro-2-[(2-{[4-[4-(1-methylethyl)-1-piperazinyl]-2-(methyloxy)phenyl]amino}-1H-pyrrolo[2,3-d]pyrimidin-4-yl)amino]benzamide]
14 | – | > 500 | 5.01 to 158 | 5.01 to 200 | > 500 | – | CNC(=O)c1c(F)cccc1Nc1nc(Nc2cc(N(C)C(=O)CN(C)C)c(C)cc2OC)nc2[nH]ccc12 [Example 254, 2-[(2-{[5-[(N,N-dimethylglycyl)(methyl)amino]-4-methyl-2-(methyloxy)phenyl]amino}-1H-pyrrolo[2,3-d]pyrimidin-4-yl)amino]-6-fluoro-N-methylbenzamide]
15 | 0.251 to 1 | < 100 | 0.251 to 1 | – | < 100 | – | CNC(=O)c1c(F)cccc1Nc1nc(Nc2cc3c(cc2OC)CCCN3C(=O)CN(C)C)nc2[nH]cc(C)c12 [Example 260, 2-[(2-{[1-(N,N-dimethylglycyl)-6-(methyloxy)-1,2,3,4-tetrahydro-7-quinolinyl]amino}-5-methyl-1H-pyrrolo[2,3-d]pyrimidin-4-yl)amino]-6-fluoro-N-methylbenzamide]
16 | 0.251 to 1 | < 100 | 0.251 to 1 | – | < 100 | – | COc1cc2c(cc1Nc1nc(Nc3cccc(F)c3C(N)=O)c3c(C)c[nH]c3n1)N(C(=O)CN(C)C)CCC2 [Example 261, 2-[(2-{[1-(N,N-dimethylglycyl)-6-(methyloxy)-1,2,3,4-tetrahydro-7-quinolinyl]amino}-5-methyl-1H-pyrrolo[2,3-d]pyrimidin-4-yl)amino]-6-fluorobenzamide]
